Measurements taken from patent publication US8414989B2, “Cyclodextrin compositions, articles, and methods” (Cellresin Technologies, LLC, priority 2011, dated 2013).

Key:
[1] = Example 9: 1-MCP headspace release from UV-cured ink coated on PET film; assay type: physicochemical; settings: 4 wt-% 1-MCP/c/α-CD UV ink on PET, 200 μL water
Protocol: ImTech UVBLK Series 912 cartridges were obtained from ImTech Inc. of Corvallis, Oreg. About 40 g of black ink was removed from the cartridge in which the ink was supplied. The ink was dried overnight in a closed container with 3 A molecular sieves to remove residual water contained in the ink. Then 17.5 g of the dried ink was transferred to a 70 mL roller mill jar filled with 50 g of 3 mm glass beads to which 0.875 g of 1-MCP/c/α-CD was added to the UV ink. The jar was sealed and rotated on a roller mill at 140 rpm for four hours. At the end of four hours of rolling to disperse the 1-MCP/c/α-CD, an additional 4.375 g of dry UV ink was added making a 4 wt-% 1-MCP/c/α-CD containing ink. Then the ink was decanted from the glass beads.
A rubber ink roller was used to coat a discontinuous, thin (nominally 3 μm), but uniform UV ink coating onto a 10 cm by 20 cm section of PET film (120 microns thick, obtained from the 3M Company of St. Paul, Minn.) in the manner described in Example 2. UV ink coated rectangles were passed by hand about 10 cm beneath a medium pressure mercury arc lamp operating at 79 watts per cm for 1.5 seconds exposure to the lamp. The cured sample was allowed to sit on a laboratory bench overnight ink side down.
A paper cutter was used to cut two samples, 20 cm^2 and 81 cm^2, from the cured ink coated PET film sheet. The samples were individually placed in 250 mL serum bottles. The bottles were then sealed with TEFLON® faced silicone septa. Then 200 μL of deionized water was injected into the bottle. […] After the injection of water into the bottle, 1-MCP was measured in the headspace using the analytical technique employed in Example 3.

[2] = Example 10: 1-MCP headspace release from inkjet printed multilayer and monolayer films; assay type: physicochemical; settings: 250 mL bottle, 100 μL water
From the text: The ink containing 4 wt-% 1-MCP/c/α-CD from Example 9 was loaded back into the previously emptied cartridge. After refilling the cartridge, it was installed into a HP Inkjet 1600C printer (obtained from the Hewlett-Packard Company of Palo Alto, Calif.) and the calibration or head cleaning function was run. A medium density, black cross-hatch pattern obtained from Microsoft EXCEL software program 2003 (obtained from the Microsoft Corporation of Redman, Wash.) was used to format the entire printable page. The EXCEL pattern image was printed onto 3M, CG3460 Transparency Film (polyester film 120 microns thick for HP inkjet printers; obtained from the 3M Company of St. Paul, Minn.) using the dried, milled ink containing 4 wt-% 1-MCP/c/α-CD of Example 9. Immediately after printing, the printed side of the transparency film was overlaid with a 25 μm polyethylene film and then passed by hand about 10 cm beneath a medium pressure mercury arc lamp operating at 79 watts per cm for 3 seconds exposure to the lamp, with the polyethylene side facing the lamp. The methodology simulates a multilayer flexible-package where the inner surface of an outer, transparent, layer of the multilayer flexible material was printed (referred to as reverse printing). The printed surface was then laminated to other layers. The outside layer itself serves to protect the ink from abuse.
The following technique was designed to measure the permeability of 1-MCP, which was released from the reverse inkjet printed 3M Transparency Film, through PE film as the “inner layer” of a multilayer produce package. In a multilayer produce package, as the humidity rises inside the package by respiration of fresh agricultural products, the water vapor reaches a concentration that allows it to diffuse to the outside of the package. In this example, water also diffuses through the ink layer containing 1-MCP/c/α-CD. The reverse printed ink on the PET film releases 1-MCP which diffuses through the PE film into the interior of package (headspace) under a gradient of low 1-MCP concentration inside the bottle headspace and high 1-MCP concentration within the multilayer structure.
Using a paper cutter, a 5.5 cm by 16 cm rectangle (88 cm^2) was cut from the multilayer structure of the printed, cured ink on the PET sheet overlaid with PE. The rectangle was placed in a 250 mL serum bottle. The bottle was then sealed with a TEFLON® faced silicone septa. Then 100 μL of deionized water was injected into the bottle. […] Bottle headspace was analyzed at 0.17, 0.5, 1, 2, 4, and 24 hours after the injection of water using the technique employed in Example 3. The results in Table 8 illustrate 1-MCP headspace concentration as a function of time for the “multilayer” film.
A second piece of PET transparency film was printed as in Example 9 except that the transparency film was not covered with PE film; the printed ImTech UVBLK Series 912 ink was cured on the PET film surface using a medium pressure mercury arc lamp operating at 79 watts per cm in the same manner as for Example 9. Then, using a paper cutter, a 1.2 cm by 16 cm rectangle (19 cm^2) was cut from the sheet. The rectangle was placed in 250 mL serum bottle. The bottle was then sealed with a TEFLON® faced silicone septa. Then 100 μL of deionized water was injected into the bottle. […] Bottle headspace was analyzed at 0.17, 0.5, 1, 2, 4, and 24 hours after the injection of water using the technique employed in Example 3. The headspace concentration of 1-MCP as a function of time is also reported in Table 9 for the “monolayer” film.

With `CC1=CC1` [1-MCP, 1-methylcyclopropene] the “Headspace concentration of 1-MCP” value ([1]; 20 cm^2, 250 mL bottle, 0.5 hours) was <0.01 ppm (v/v), the “Headspace concentration of 1-MCP” value ([1]; 20 cm^2, 250 mL bottle, 1 hour) was <0.01 ppm (v/v) and the “Headspace concentration of 1-MCP” value ([1]; 20 cm^2, 250 mL bottle, 2 hours) was 0.01 ppm (v/v). The “Headspace concentration of 1-MCP” value ([1]; 20 cm^2, 250 mL bottle, 4 hours) was 0.04 ppm (v/v), the “Headspace concentration of 1-MCP” value ([1]; 20 cm^2, 250 mL bottle, 8 hours) was 0.05 ppm (v/v) and the “Headspace concentration of 1-MCP” value ([1]; 20 cm^2, 250 mL bottle, 27 hours) was 0.09 ppm (v/v). For the same compound, the “Headspace concentration of 1-MCP” value ([1]; 20 cm^2, 250 mL bottle, 170 hours) was 0.76 ppm (v/v), the “Headspace concentration of 1-MCP” value ([1]; 81 cm^2, 250 mL bottle, 0.5 hours) was <0.01 ppm (v/v) and the “Headspace concentration of 1-MCP” value ([1]; 81 cm^2, 250 mL bottle, 1 hour) was 0.05 ppm (v/v). For the same compound, the “Headspace concentration of 1-MCP” value ([1]; 81 cm^2, 250 mL bottle, 2 hours) was 0.18 ppm (v/v), the “Headspace concentration of 1-MCP” value ([1]; 81 cm^2, 250 mL bottle, 21 hours) was 0.51 ppm (v/v) and the “Headspace concentration of 1-MCP” value ([1]; 81 cm^2, 250 mL bottle, 48 hours) was 0.60 ppm (v/v). The “Headspace concentration of 1-MCP” value ([2]; 19 cm^2 Monolayer (printed PET, no PE film), 0.17 hours) was 0.50 ppm (v/v), the “Headspace concentration of 1-MCP” value ([2]; 19 cm^2 Monolayer (printed PET, no PE film), 0.5 hours) was 0.52 ppm (v/v) and the “Headspace concentration of 1-MCP” value ([2]; 19 cm^2 Monolayer (printed PET, no PE film), 1 hour) was 0.50 ppm (v/v). The “Headspace concentration of 1-MCP” value ([2]; 19 cm^2 Monolayer (printed PET, no PE film), 2 hours) was 0.51 ppm (v/v), the “Headspace concentration of 1-MCP” value ([2]; 19 cm^2 Monolayer (printed PET, no PE film), 4 hours) was 0.52 ppm (v/v) and the “Headspace concentration of 1-MCP” value ([2]; 19 cm^2 Monolayer (printed PET, no PE film), 24 hours) was 0.49 ppm (v/v). The “Headspace concentration of 1-MCP” value ([2]; 88 cm^2 Multilayer (inkjet printed PET overlaid with 25 μm PE), 0.17 hours) was 0.25 ppm (v/v), the “Headspace concentration of 1-MCP” value ([2]; 88 cm^2 Multilayer (inkjet printed PET overlaid with 25 μm PE), 0.5 hours) was 0.46 ppm (v/v) and the “Headspace concentration of 1-MCP” value ([2]; 88 cm^2 Multilayer (inkjet printed PET overlaid with 25 μm PE), 1 hour) was 1.1 ppm (v/v). The “Headspace concentration of 1-MCP” value ([2]; 88 cm^2 Multilayer (inkjet printed PET overlaid with 25 μm PE), 2 hours) was 1.5 ppm (v/v), the “Headspace concentration of 1-MCP” value ([2]; 88 cm^2 Multilayer (inkjet printed PET overlaid with 25 μm PE), 4 hours) was 3.2 ppm (v/v) and the “Headspace concentration of 1-MCP” value ([2]; 88 cm^2 Multilayer (inkjet printed PET overlaid with 25 μm PE), 24 hours) was 8.3 ppm (v/v).
